From US20160298082A1, “METHOD FOR OBTAINING IMMUNO-STIMULATORY DENDRITIC CELLS” (TRANSIMMUNE AG, priority 2013, published 2016)
“Also recorded” adds a separate entry of the source. No end group written: not given here.

Columns and labels:
[1] = tested on: MoDC; test: IL-10 and IL-12p70 ELISA in siRNA experiments; assay type: cell-based, human; settings: siRNA experiment, not transfected
Experimental: Silencer select pre-designed and validated GILZ siRNA (Invitrogen), with off-target prediction algorithms, was used to knockdown GILZ expression. Mo-DC were transfected using Lipofectamine RNAiMAX Reagent (Invitrogen). RNAi duplex and lipofectamine reagent were incubated together for 20 min, then added to MoDC cultures and incubated for 2 hr at 37° C. and 5% CO2. Transfected MoDC were treated in an identical fashion as described for the MoDC/lymphocyte co-cultures. MoDC were also transfected with scramble siRNA.
(§1) Culture supernatants were analyzed in a multiplex format utilizing magnetic beads to IL-6, IL-8, IL-10, IL-12p70, IFN-γ, TNF-α, RANTES, MCP-1, and MIP-1β (BioRad Laboratories). For siRNA experiments, supernatants were analyzed with enzyme-linked immunosorbent assay (ELISA) kits for IL-10 (R&D Systems) and IL-12p70 (Enzo Life Science). All samples and standards were run in duplicate and analyzed using the LUMINEX 200 (LUMINEX), or the BioTek EL800 (BioTek).

[2] = tested on: GILZ; test: GILZ mRNA expression in CD11c+ MoDC (quantitative real-time PCR); assay type: cell-based, human; settings: relative to untreated MoDC cultured alone; 24 hr (FIG. 13B); dex 100 nM; PUVA 100 ng/mL, 1 J/cm^2
Experimental: Monocytes were cultured at a density of 5×10^6 cells/mL in 6- and 12-well polystyrene tissue culture plates at 37° C. and 5% CO2 in RPMI-1640 (Gibco) supplemented with heat-inactivated 15% AB serum (Gemini) and 1% penicillin/streptomycin (now referred to as complete media). 800 IU/mL recombinant human GM-CSF (R&D Systems) and 1000 IU/mL recombinant human IL-4 (R&D Systems) were added to cultures for 36 hr to induce monocyte to DC differentiation as described.
Non-adherent cells (purity: 66.0±4.5% CD3^+) removed during plastic adherence will now be generally referred to as lymphocytes. Lymphocytes were treated with 8-MOP (100 ng/mL) and UVA (1 J/cm^2), washed with PBS, and co-cultured in complete media at 37° C. and 5% CO2 with either PUVA-treated or untreated-MoDC in a ratio of 5 or 10 lymphocytes to 1 MoDC. […] 24 hr after LPS stimulation, cells were harvested for RNA isolation and immunophenotyping, and supernatants were collected for cytokine quantification.
RNA was isolated from CD11c^+ MoDC using QIAShredder columns (QIAGEN) and the RNeasy Mini Kit (QIAGEN) with on-column Dnase I treatment (QIAGEN). RNA yield and purity were assessed using a NanoDrop ND-1000 spectrophotometer. cDNA was obtained using the High Capacity cDNA Reverse Transcription Kit (Applied Biosystems) in a 96-well thermocycler (MJ Research PTC-200). […]

[3] = tested on: MoDC; test: Cytokine quantification in MoDC supernatants after LPS stimulation (magnetic bead multiplex); assay type: cell-based, human; settings: after LPS; untreated MoDC 6.7
Experimental: Lymphocytes were treated with 8-MOP (100 ng/mL) and UVA (1 J/cm^2), washed with PBS, and co-cultured in complete media at 37° C. and 5% CO2 with either PUVA-treated or untreated-MoDC in a ratio of 5 or 10 lymphocytes to 1 MoDC. MoDC treated for 24 hr with 100 nM dexamethasone (Sigma) served as the positive control group. After 24 hr, cells were harvested and MoDC were re-purified. […] CD11c^+ MoDC were re-plated at 0.5-1.0×10^6 cells/mL in complete media and stimulated with 100 ng/mL LPS (Sigma). 24 hr after LPS stimulation, cells were harvested for RNA isolation and immunophenotyping, and supernatants were collected for cytokine quantification.
as §1

[4] = tested on: platelets; test: Platelet adhesion to protein-coated Vena8 channels under flow; assay type: cell-based, human; settings: for Platelet adhesion to fibrinogen-coated plates after pre-incubation of platelets with peptide / Platelet adhesion to fibronectin-coated plates after pre-incubation of platelets with peptide: PRP pre-incubated with 2 mM peptide 20 min
Experimental: Platelet adhesion experiments were performed using the Vena8 flow chamber described above. Fibrinogen and fibronectin (Sigma) were dissolved in PBS to a final concentration of 200 mcg/ml. Channels of the Vena8 chips were incubated at room temperature in a humidified chamber for 2 hours with the protein solution, autologous plasma, or PBS alone. The channels were washed with 5× the volume RPMI. Platelet-rich-plasma was then perfused through the protein-coated channel at the indicated shear-stress, held constant. For each channel, still images were acquired exactly 90 seconds into the experiment at 4 pre-defined low power fields located along the flow path (fields were centered at 2500, 7500, 12500, and 17500 microns from the start point of infusion).
Some experiments involved pre-treating platelet-rich-plasma with protein fragments prior to infusion through the channels. Small RGD peptides, containing the amino-acid sequence Arg-Gly-Asp-Ser; DRG peptides, contain the amino-acid sequence Ser-Asp-Gly-Arg; or fragment 400-411 of fibrinogen, containing the amino-acid sequence His-His-Leu-Gly-Gly-Ala-Lys-Gln-Ala-Gly-Asp-Val, were incubated at a concentration of 2 mM with PRP for 20 minutes at room temperature. The PRP was then perfused through the channels as previously described.

[5] = target: β1 integrin (CD29), active (open) conformation, on monocytes (human) (UniProt P05556); test: flow cytometry of monocytes before passage through the plates
Chain of β1 integrin (CD29), active (open) conformation, on monocytes (human) (P05556 21-798): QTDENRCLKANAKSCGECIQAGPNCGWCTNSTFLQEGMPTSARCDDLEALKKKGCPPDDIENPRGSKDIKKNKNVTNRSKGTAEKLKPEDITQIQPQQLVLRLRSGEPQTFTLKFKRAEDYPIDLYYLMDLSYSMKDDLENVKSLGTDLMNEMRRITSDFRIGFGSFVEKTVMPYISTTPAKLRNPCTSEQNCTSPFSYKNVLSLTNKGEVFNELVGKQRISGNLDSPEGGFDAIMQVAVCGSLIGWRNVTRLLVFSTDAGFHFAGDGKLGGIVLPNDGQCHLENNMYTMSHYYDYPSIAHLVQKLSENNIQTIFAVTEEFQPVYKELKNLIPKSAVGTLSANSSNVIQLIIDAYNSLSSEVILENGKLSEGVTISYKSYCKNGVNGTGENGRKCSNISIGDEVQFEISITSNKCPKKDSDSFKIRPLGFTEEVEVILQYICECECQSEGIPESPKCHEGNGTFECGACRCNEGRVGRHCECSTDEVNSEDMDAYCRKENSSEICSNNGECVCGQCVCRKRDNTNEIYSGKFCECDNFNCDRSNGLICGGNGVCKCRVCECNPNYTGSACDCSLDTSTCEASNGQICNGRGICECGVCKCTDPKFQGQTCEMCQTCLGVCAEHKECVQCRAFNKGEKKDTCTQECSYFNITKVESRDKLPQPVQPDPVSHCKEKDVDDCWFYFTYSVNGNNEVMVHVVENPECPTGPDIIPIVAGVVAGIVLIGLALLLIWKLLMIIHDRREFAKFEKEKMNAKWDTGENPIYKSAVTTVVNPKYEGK

[6] = target: β1 integrin (CD29), active (open) conformation, on monocytes (human) (UniProt P05556); test: flow cytometry of monocytes immediately after flow over platelet-coated plates, low number of platelet interactions
[7] = target: β1 integrin (CD29), active (open) conformation, on monocytes (human) (UniProt P05556); test: flow cytometry of monocytes immediately after flow over platelet-coated plates, high number of platelet interactions
[8] = tested on: monocyte-platelet interactions; test: Monocyte-platelet interactions on platelet-coated plates under flow (receptor-ligand studies); assay type: cell-based, human
Experimental: Platelet-coated Vena8 channels were pre-treated with either 40 μg/ml anti-P-selectin (R&D Systems) or 40 μg/ml of an isotype control for 30 minutes at room temperature, then washed with 5× the volume RPMI. Mononuclear cell suspensions were pre-treated with either RGD or DGR peptides at a concentration of 2.5 mM. Video samples lasting 400 frames (26.3 seconds) were recorded 60 seconds after commencement of flow using a lower power field of view spanning 400 microns and centered at 7500 microns from the flow start point.
The monocyte-platelet interactions observed on video were divided into two categories: (1) short-acting, arbitrarily defined as contact occurring for less than 3 seconds (46 frames), and (2) long-acting, defined as contact longer than 3 seconds, including stable binding. Since it had been previously determined that the platelets in the ECP system were in an activated state, and that activated platelets express an array of proteins including P-selectin and RGD containing proteins (e.g. fibronectin, fibrinogen, and vitronectin), it was sought to determine the involvement, if any, of these proteins in either short or long-duration interactions. Plates were pre-coated with platelets, and four conditions tested: (1) platelets pre-treated with an irrelevant isotype control, and monocytes untreated (P+RGD+); (2) platelets pre-treated with an irrelevant isotype control, and monocytes pre-incubated with RGD peptides (P+RGD−); (3) platelets pre-treated with anti-P-selectin, and monocytes untreated (P−RGD+); (4) platelets pre-treated with anti-P-selectin, and monocytes pre-treated with RGD peptides (P−RGD−). It was assumed that pre-treating monocytes with RGD peptides should result in a decreased in the number of free RGD-recognizing receptors available to interact with RGD-containing proteins expressed by the platelets. […] As shown by FIG. 6, both short-acting and long-acting interactions were maximal when neither RGD nor P-selectin were blocked (P+RGD+); the level of interaction in all other conditions was expressed as a percentage of this maximum. […]

[9] = target: RGD-recognizing receptors (on monocytes); test: cell-based or functional assay
[10] = 0.5 dyne/cm2, relative to P+RGD+ maximum

C[C@@H]1C[C@H]2[C@@H]3CCC4=CC(=O)C=C[C@]4(C)[C@@]3(F)[C@@H](O)C[C@]2(C)[C@@]1(O)C(=O)CO [dexamethasone]
IL-10 to IL-12p70 ratio, non-transfected MoDC cultured alone [1]: 15.3
GILZ up-regulation, MoDC cultured alone [2]: 4.29 fold
Ratio of IL-10 to IL-12p70, MoDC cultured alone [3]: 67.7

fibrinogen
Platelet adhesion to plates coated with the protein ([4]; coating 200 mcg/ml, wall shear stress 0.2 to 6.0 dyne/cm^2): highest concentrations of platelets adhered

HHLGGAKQAGDV [gamma fragments, gamma component of fibrinogen, amino acids 400-411]
Platelet adhesion to fibrinogen-coated plates after pre-incubation of platelets with peptide [4]: decreased
Platelet adhesion to fibrinogen-coated plates after pre-incubation of platelets with peptide ([4]; listed as peptide fragments corresponding to amino acids 400-411 of fibrinogen): significantly decreased
Platelet adhesion to fibronectin-coated plates after pre-incubation of platelets with peptide [4]: had no effect

anti-CD29 HUTS-21 (BD Biosciences) (antibody)
percent of monocytes that bound the antibody (baseline integrin activation) [5]: < 10%
percent of monocytes that bound the antibody (β1 in the active form) [6]: 9%
percent of monocytes that bound the antibody (β1 in the active form) [7]: 71%

Arg-Gly-Asp-Ser (RGDS; printed: Arg-Gly-Asp-Ser) [RGD peptides, small RGD peptides]
Long-duration (>3 s) monocyte-platelet interactions [8, 10]: significant decrease
Short-duration (<3 s) monocyte-platelet interactions [8, 10]: did not significantly alter; also recorded: no change
Decrease of long-duration monocyte-platelet interactions ([8]; monocytes pre-incubated with RGD peptides 2.5 mM (P+RGD−)): 44%
Platelet adhesion to fibrinogen-coated plates after pre-incubation of platelets with peptide [4]: not significantly altered
Platelet adhesion to fibronectin-coated plates after pre-incubation of platelets with peptide [4]: decreased adhesion significantly

RGDS [RGD peptides, containing the amino-acid sequence Arg-Gly-Asp-Ser]
long-duration monocyte-platelet interactions under flow (video microscopy) [9]: 44%
